{"source": "patent US20050272720A1", "about": "(priority 2004, published 2005)", "assay": "Solid-state stability of olanzapine acetate under normal conditions", "assay_type": "physicochemical", "source_text": "The olanzapine acetate in solid state is a particulate material, with no or minimal tendency of reversible absorption of water from the environment, and with good handling properties."}
{"smiles": "Cc1cc2c(s1)Nc1ccccc1N=C2N1CCN(C)CC1", "note": "[olanzapine acetate]", "values": [{"measurement": "stability under normal conditions of temperature and moisture", "result": "sufficiently stable"}]}
